# Laboratory results from ChEMBL document CHEMBL1201862, “PubChem BioAssay data set” (2004).
#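 In this assay, cells in 96-well plates receive the compound at five concentrations for 48 hours. Endpoints are linearly interpolated between the surrounding concentrations. The concentration for 50% growth inhibition is given as GI50.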 Active and inactive are the calls of the source. Cut-off read from the data, not from the text of the source: active = GI50 up to about 1.1 µM and inactive = higher.
# Columns and labels:
# Test in all cases: DTP human tumour cell line panel, 48 h
# [1] = tested on: MDA-MB-231
# [2] = tested on: A549
# [3] = tested on: SK-MEL-28
# [4] = tested on: EKVX
# [5] = tested on: UACC-257
# [6] = tested on: HT-29
# [7] = tested on: SK-MEL-5
# [8] = tested on: SK-OV-3
# [9] = tested on: SN12C
# [10] = tested on: OVCAR-4
# [11] = tested on: T47D
# [12] = tested on: 786-0
# [13] = tested on: TK-10
# [14] = tested on: KM12
# [15] = tested on: NCI/ADR-RES
# [16] = tested on: SF-295
# [17] = tested on: HOP-92
# [18] = tested on: BT-549
# [19] = tested on: MDA-N
# [20] = tested on: CAKI-1
# [21] = tested on: NCI-H460
# [22] = tested on: A498
# [23] = tested on: NCI-H226
# [24] = tested on: HCC 2998
# [25] = tested on: OVCAR-3
# [26] = tested on: UACC-62
# [27] = tested on: SF-268
# [28] = tested on: SF-539
# [29] = tested on: HOP-62
# [30] = tested on: OVCAR-8
# [31] = tested on: HCT-15
# [32] = tested on: PC-3
# [33] = tested on: MDA-MB-435
# [34] = tested on: U-251
# [35] = tested on: DU-145
# [36] = tested on: ACHN
# [37] = tested on: SW-620
# [38] = tested on: HCT-116
# [39] = tested on: UO-31
# [40] = tested on: MCF7
# [41] = tested on: COLO 205
# [42] = tested on: CCRF-CEM
# [43] = tested on: Hs-578T
# [44] = tested on: Malme-3M
# [45] = tested on: IGROV-1
# [46] = tested on: M14
# [47] = tested on: K562
# [48] = tested on: NCI-H23
# [49] = tested on: LOX IMVI
# [50] = tested on: OVCAR-5
# [51] = tested on: SNB-19
# [52] = tested on: SNB-75
# [53] = tested on: MOLT-4
# [54] = tested on: RXF 393
# [55] = tested on: SK-MEL-2
# [56] = tested on: RPMI-8226
structure (smiles),measurement,setting,value
O=C(O)c1cc(NC2=C(Cl)C(=O)c3c(O)ccc(O)c3C2=O)ccc1O,GI50,[1],> 10 µM (inactive)
same,GI50,[2],> 10 µM (inactive)
same,GI50,[3],> 10 µM (inactive)
same,GI50,[4],> 10 µM (inactive)
same,GI50,[5],> 10 µM (inactive)
same,GI50,[6],> 10 µM (inactive)
same,GI50,[7],> 10 µM (inactive)
same,GI50,[8],> 10 µM (inactive)
same,GI50,[9],> 10 µM (inactive)
same,GI50,[10],> 10 µM (inactive)
same,GI50,[11],> 10 µM (inactive)
same,GI50,[12],> 10 µM (inactive)
same,GI50,[13],> 10 µM (inactive)
same,GI50,[14],> 10 µM (inactive)
same,GI50,[15],> 10 µM (inactive)
same,GI50,[16],> 10 µM (inactive)
same,GI50,[17],> 10 µM (inactive)
same,GI50,[18],> 10 µM (inactive)
same,GI50,[19],> 10 µM (inactive)
same,GI50,[20],> 10 µM (inactive)
same,GI50,[21],> 10 µM (inactive)
same,GI50,[22],> 10 µM (inactive)
same,GI50,[23],> 10 µM (inactive)
same,GI50,[24],> 10 µM (inactive)
same,GI50,[25],> 10 µM (inactive)
same,GI50,[26],> 10 µM (inactive)
same,GI50,[27],> 10 µM (inactive)
same,GI50,[28],> 10 µM (inactive)
same,GI50,[29],> 10 µM (inactive)
same,GI50,[30],> 10 µM (inactive)
same,GI50,[31],> 10 µM
same,GI50,[32],> 10 µM (inactive)
same,GI50,[33],> 10 µM (inactive)
same,GI50,[34],> 10 µM (inactive)
same,GI50,[35],> 10 µM (inactive)
same,GI50,[36],> 10 µM (inactive)
same,GI50,[37],> 10 µM (inactive)
same,GI50,[38],> 10 µM (inactive)
same,GI50,[39],> 10 µM (inactive)
same,GI50,[40],> 10 µM (inactive)
same,GI50,[41],> 10 µM (inactive)
same,GI50,[42],> 10 µM (inactive)
same,GI50,[43],> 10 µM (inactive)
same,GI50,[44],> 10 µM (inactive)
same,GI50,[45],> 10 µM (inactive)
same,GI50,[46],> 10 µM (inactive)
same,GI50,[47],> 10 µM (inactive)
same,GI50,[48],> 10 µM (inactive)
same,GI50,[49],> 10 µM (inactive)
same,GI50,[50],> 10 µM (inactive)
same,GI50,[51],> 10 µM (inactive)
same,GI50,[52],> 10 µM (inactive)
same,GI50,[53],> 10 µM (inactive)
CCOc1ccc(N/C(=C(/C(Cl)=C(/Cl)NCCO)[N+](=O)[O-])n2nnc3ccccc32)cc1,GI50,[1],20.6 µM (inactive)
same,GI50,[2],44 µM (inactive)
same,GI50,[3],18.7 µM (inactive)
same,GI50,[4],25.2 µM (inactive)
same,GI50,[5],41.3 µM (inactive)
same,GI50,[6],29.9 µM (inactive)
same,GI50,[8],12.8 µM (inactive)
same,GI50,[9],19.8 µM (inactive)
same,GI50,[10],16.7 µM (inactive)
same,GI50,[11],18.2 µM (inactive)
same,GI50,[12],29.6 µM (inactive)
same,GI50,[14],24.8 µM (inactive)
same,GI50,[15],25.2 µM (inactive)
same,GI50,[54],16.2 µM (inactive)
same,GI50,[16],28 µM (inactive)
same,GI50,[18],18.5 µM (inactive)
same,GI50,[55],35 µM (inactive)
same,GI50,[19],28.9 µM (inactive)
same,GI50,[20],14.4 µM (inactive)
same,GI50,[21],48 µM (inactive)
same,GI50,[22],31 µM (inactive)
same,GI50,[23],> 100 µM (inactive)
same,GI50,[24],79.4 µM (inactive)
same,GI50,[25],18.1 µM (inactive)
same,GI50,[26],21.9 µM (inactive)
same,GI50,[27],20.1 µM (inactive)
same,GI50,[28],34.5 µM (inactive)
same,GI50,[29],66.7 µM (inactive)
same,GI50,[30],18.3 µM (inactive)
same,GI50,[31],20.5 µM
same,GI50,[32],25.7 µM (inactive)
same,GI50,[33],16.4 µM (inactive)
same,GI50,[34],21.8 µM (inactive)
same,GI50,[35],12.9 µM (inactive)
same,GI50,[36],19.5 µM (inactive)
same,GI50,[37],19.2 µM (inactive)
same,GI50,[38],37.7 µM (inactive)
same,GI50,[39],19.5 µM (inactive)
same,GI50,[40],19 µM (inactive)
same,GI50,[41],16.1 µM (inactive)
same,GI50,[42],5.57 µM (inactive)
same,GI50,[43],15.2 µM (inactive)
same,GI50,[44],18.4 µM (inactive)
same,GI50,[46],30.4 µM (inactive)
same,GI50,[47],20.8 µM (inactive)
same,GI50,[48],17.5 µM (inactive)
same,GI50,[50],35.6 µM (inactive)
same,GI50,[51],51.1 µM (inactive)
same,GI50,[52],60.1 µM (inactive)
same,GI50,[56],30.7 µM (inactive)
same,GI50,[53],5.96 µM (inactive)
